Source: PMC9939733 (The Journal of Biological Chemistry, 2023)
Where a chain is given by its changes, count along the chain named. Where “and” joins values, the source holds several entries; their conditions need not be identical. Equal values may be shown once.

Key:
Assay type in all cases: biochemical
WT IDH2 = target: T1, WT IDH2 (Homo sapiens, UniProt P48735); experiment: Absorbance assay, WT activity in the presence of equimolar DL-isocitrate (inhibition); settings: […] isocitrate and […] test compound, 75 μM NADP+, 2.0 nM WT IDH2
T1 construct: made in house; host or cells: Sf21 insect cells (cell pellets prepared at Evotec)
T1 sequence (P48735 40-452): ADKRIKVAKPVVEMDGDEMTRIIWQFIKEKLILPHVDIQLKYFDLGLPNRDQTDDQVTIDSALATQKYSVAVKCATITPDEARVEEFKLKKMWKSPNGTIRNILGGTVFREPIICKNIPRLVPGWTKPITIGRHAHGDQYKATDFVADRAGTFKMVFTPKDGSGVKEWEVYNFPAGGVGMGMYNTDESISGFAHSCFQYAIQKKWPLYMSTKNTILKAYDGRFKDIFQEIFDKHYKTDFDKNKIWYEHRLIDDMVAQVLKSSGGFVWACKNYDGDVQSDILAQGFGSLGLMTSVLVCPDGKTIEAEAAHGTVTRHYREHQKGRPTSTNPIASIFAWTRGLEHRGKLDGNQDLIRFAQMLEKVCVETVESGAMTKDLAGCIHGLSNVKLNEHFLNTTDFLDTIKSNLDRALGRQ
Outline: (§1)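 Reactions were run as technical quadruplicates. Compounds were dispensed with a simultaneous pipettor, and each assay was started by adding reagent from a bulk dispenser.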

R140Q IDH2 [1] = target: T2, R140Q IDH2 (Homo sapiens, UniProt P48735, R140Q); experiment: Steady-state kinetics, absorbance assay; settings: 0.03 μM enzyme, 50 μM NADPH, 20 mM MgCl2, pH 8.0
T2 construct: made in house; host or cells: Sf21 insect cells (cell pellets prepared at Evotec)
T2 sequence (P48735 40-452 R140Q): T1 sequence (P48735 40-452) with R101Q
Method: (§2) Compounds were dispensed using a CyBio SDW-CW CyBi-Well Simultaneous Pipettor and assay started using a ThermoFisher Multidrop Combi reagent dispenser.
(§3) Reactions were performed as technical duplicates, and all assays were carried out in two independent duplicates.

R172K IDH2 [2] = target: T3, R172K IDH2 (Homo sapiens, UniProt P48735, R172K); experiment: Steady-state kinetics, absorbance assay; settings: 0.03 μM enzyme, 50 μM NADPH, 20 mM MgCl2, pH 8.0
T3 construct: made in house; host or cells: Sf21 insect cells (cell pellets prepared at Evotec)
T3 sequence (P48735 40-452 R172K): T1 sequence (P48735 40-452) with R133K
Method: as §2, §3

R132C/S280F IDH1 = target: T4, R132C/S280F IDH1 (Homo sapiens, UniProt O75874, R132C/S280F); experiment: Steady-state kinetics, NADPH turnover assay
T4 construct: made in house
Method: independent runs, each composed of technical duplicates (n = 2; mean ± SD); c) R132C/S280F IDH1 assays
monitoring NADPH turnover were performed as reported (3). […]

R140Q IDH2 [3] = target: T2, R140Q IDH2; experiment: Absorbance assay, variant activity in the presence of equimolar 2OG (inhibition screen); settings: 6.0 mM 2OG and 6.0 mM test compound, 0.03 μM R140Q IDH2, 50 μM NADPH
Outline: as §1

R172K IDH2 [4] = target: T3, R172K IDH2; experiment: as above; settings: 1.0 mM 2OG and 1.0 mM test compound, 0.03 μM R172K IDH2, 50 μM NADPH
Outline: as §1

R132H IDH1 [5] = target: T5, R132H IDH1 (Homo sapiens, UniProt O75874, R132H); experiment: Electrochemical assay (FNR+R132H IDH1)@ITO/PGE electrode; design: made in house; host or cells: Escherichia coli BL21(DE3) pLyS (IDH1 R132H)
Method: Assays were carried out in an anaerobic glovebox (Glove Box Technology) under a nitrogen atmosphere. A potentiostat (Autolab PGSTAT 10) running on Nova software was used for all experiments. As previously described, the electrochemical apparatus included an Autolab electrode rotator, a two-chamber custom-made glass electrochemical cell, and custom-made rotating pyrolytic graphite edge (PGE) electrodes ([55]). Platinum wire was used as the counter electrode; it was placed in the working electrode chamber. Electrode potentials (E) were measured against a saturated calomel electrode and converted to the standard hydrogen electrode using a temperature-dependent equation (at 25 °C: ESHE = ESCE + 0.2412 V) ([55]). Nanoporous indium tin oxide (ITO) electrodes were made by electrophoretically depositing ITO nanoparticles (<50 nm, Sigma-Aldrich) onto PGE electrodes (ITO/PGE) as previously described ([55]). […] In all experiments, 0.85 nmol (homodimer basis) of IDH1 R132H was used; the amount of coloaded FNR was adjusted to achieve the desired enzyme loading ratio. Electrodes loaded with enzyme were thoroughly rinsed using buffer solution before each experiment to remove excess enzyme. […]
and controlled electrochemically under steady-state conditions (1).
Conditions: 25 °C, mixed buffer (20 […]
mM each MES, TAPS, CHES, pH 8.0), 10 mM MgCl2, 10 µM NADPH, 4 mL cell volume, (FNR+R132H IDH1)@ITO/PGE electrode, electrode area 0.06 cm2, rotated at 1000 rpm, E = –0.513 V vs SHE, enzyme loading ratios (molar): FNR/R132H IDH1; 2.5 (dimer basis).
(1 picture or pasted object on this page, not shown here)
Target sequence in this assay (O75874 2-414 R132H): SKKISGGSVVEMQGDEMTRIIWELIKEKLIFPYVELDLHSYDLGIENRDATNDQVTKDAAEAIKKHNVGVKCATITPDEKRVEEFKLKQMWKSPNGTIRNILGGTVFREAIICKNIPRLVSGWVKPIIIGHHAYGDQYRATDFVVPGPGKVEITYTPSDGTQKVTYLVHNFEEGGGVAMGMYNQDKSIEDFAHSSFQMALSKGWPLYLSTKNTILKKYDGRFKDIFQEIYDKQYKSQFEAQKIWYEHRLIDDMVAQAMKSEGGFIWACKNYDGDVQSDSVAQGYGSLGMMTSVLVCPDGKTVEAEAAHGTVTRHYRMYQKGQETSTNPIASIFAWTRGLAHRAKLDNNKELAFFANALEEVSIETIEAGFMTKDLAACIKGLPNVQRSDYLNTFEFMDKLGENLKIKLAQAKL

R132H IDH1 [6] = target: T5, R132H IDH1; experiment: Absorbance assay, variant activity in the presence of equimolar 2OG (inhibition screen); design: made in house; host or cells: Escherichia coli BL21(DE3) pLyS; settings: […] 2OG and […] test compound, 0.03 μM R132H IDH1, 50 μM NADPH
Outline: as §1
Target sequence in this assay (O75874 whole entry R132H): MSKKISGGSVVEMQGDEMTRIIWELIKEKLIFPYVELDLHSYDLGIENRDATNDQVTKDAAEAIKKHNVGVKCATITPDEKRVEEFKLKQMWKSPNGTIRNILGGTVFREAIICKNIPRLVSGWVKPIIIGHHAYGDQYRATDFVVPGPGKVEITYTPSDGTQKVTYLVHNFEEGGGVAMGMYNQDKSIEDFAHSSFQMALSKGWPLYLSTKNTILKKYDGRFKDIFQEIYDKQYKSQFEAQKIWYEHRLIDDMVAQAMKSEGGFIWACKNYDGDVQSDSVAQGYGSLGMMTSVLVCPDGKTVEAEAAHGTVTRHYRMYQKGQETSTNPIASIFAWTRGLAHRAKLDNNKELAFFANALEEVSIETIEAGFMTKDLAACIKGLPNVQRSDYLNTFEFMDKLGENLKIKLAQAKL

T4 sequence (O75874 whole entry R132C/S280F): as the sequence (O75874 whole entry R132H) above, with H132C, S280F counted along it

O=C(O)CCC(=O)C(=O)O [2OG, 2-oxoglutarate, reference compound]
activity [%] (%-substrate conversion after 20 min incubation) (WT IDH2): 91 ± 1% | Kmapp (R140Q IDH2 [1]): 5.1 ± 1.2 mM and ~5.1 mM | kcatapp (R140Q IDH2 [1]): 0.49 ± 0.04 s⁻¹ and 0.5 to 0.7 s⁻¹ | Kmapp (R172K IDH2 [2]): 0.35 ± 0.04 mM | kcatapp (R172K IDH2 [2]): 0.72 ± 0.04 s⁻¹ and 0.5 to 0.7 s⁻¹ | Kmapp (R132C/S280F IDH1): 0.04 ± 0.01 mM | activity [%] (%-substrate conversion after 20 min incubation) (R140Q IDH2 [3]): 100% | activity [%] (%-substrate conversion after 20 min incubation) (R172K IDH2 [4]): 100% | predicted change in catalytic rate (R132H IDH1 [5]): −9% | Kmapp (electrochemical assay) (R132H IDH1 [5]; 25 °C, pH 8.0, 10 mM MgCl2, 10 µM NADPH, nanoconfined enzyme): ~0.6 mM | decrease of R132H IDH1 faradaic 'coupled' current during each scan (R132H IDH1 [5]; cyclic voltammetry, stationary electrode, 20 μM NADPH, 10 mM MgCl2, pH 8): −10% | activity [%] (%-substrate conversion after 20 min incubation) (R132H IDH1 [6]): 100%
